These results are taken from patent publication US20170000784A1, “Autophagy Inhibitors” (priority 2013, published 2017).

Like-named read-outs stand apart in the source and are kept apart here.

One experiment has as its system A375 melanoma cell line. As to the kind of experiment: Cell viability (IC50) screen, CellTiter Glo, A375. In kind it is cell-based. To be noted: Homo sapiens. As to the method:
(§1) U2OS cells were seeded at 500 cells per well in 5A McCoy's with 10% FBS in 96-well clear bottom, black-walled tissue culture plates. All melanoma cell lines (A375, UACC-91, UACC-257, UACC-502, UACC-903, UACC-1308, UACC-1940, UACC-2534, and UACC-3291) were seeded at 5,000 cells per well in RPMI 1640 with 10% FBS in 96-well clear bottom, black-walled tissue culture plates. After 24 hour incubation, cells were treated with VATG compounds in triplicate with a 10-point half log dose response from […] for 24 and 48 hours. Medium was removed and 2× CellTiter Glo (Promega, G7571) reagent mixed 1:1 with Opti-MEM (Invitrogen, 31985062) was added at 100 μL per well and incubated at room temperature for 15 minutes while rocking. 75 μL per well was moved to a white-walled 96-well plate and luminescence quantified using the 96 LUM program on an EnVision plate reader (PerkinElmer) and exported for analysis. All triplicate data points were averaged and luminescent readings for each treatment were normalized to vehicle control for change in viability. Dose response curves were input into SigmaPlot for IC50 calculations (Systat Software Inc).
Background: ATP-based viability assays read luminescence as a measure of living cells.

Experiment [1] relates to UACC-257 melanoma cell line. As to the kind of experiment: Cell viability (IC50) screen, CellTiter Glo, UACC-257. Particulars: Homo sapiens. In kind it is cell-based. As to the method: as §1
The subject of experiment [2] is UACC-903 melanoma cell line. As to the kind of experiment: Cell viability (IC50) screen, CellTiter Glo, UACC-903. In kind it is cell-based. To be noted: Homo sapiens. Here is the method: as §1
Experiment [3] concerns UACC-1308 melanoma cell line. As to the kind of experiment: Cell viability (IC50) screen, CellTiter Glo, UACC-1308. In kind it is cell-based. To be noted: Homo sapiens. As to the method:
as §1

The subject of experiment [4] is UACC-1940 melanoma cell line. As to the kind of experiment: Cell viability (IC50) screen, CellTiter Glo, UACC-1940. In kind it is cell-based. Particulars: Homo sapiens. As to the method:
as §1

Another experiment concerns U2OS cells. Kind of experiment: Transmission electron microscopy of lysosomal vesicles. In kind it is cell-based. To be noted: 3 μM for 3 hours, FIG. 12B. As to the method: U2OS cells were seeded in 10 cm plates in 5A McCoy's with 10% FBS at 1×10^6 cells per plate. After 24 hours incubation, cells were treated with DMSO (vehicle control), CQ (3 or 100 μM), quinicrine (3 μM), VATG-027 (3 μM), or VATG-032 (3 μM) for three hours. Following, cells were trypsinized, washed, pelleted, and resuspended in 2% glutaraldehyde fixative (Sigma, G5882). Cell pellets were embedded in 2% agarose, post-fixed in osmium tetroxide, and dehydrated with an acetone series. Cell samples were infiltrated and embedded in Poly/Bed 812 resin and polymerized at 60° C. for 24 hours. Ultrathin sections of 70 nm were generated with a Power Tome XL (Boeckeler Instruments) and placed on copper grids. Sections were examined using a JEOL 100Cx Transmission Electron Microscope at 100 kV. Lysosomal structures were identified by a single membrane structure lacking cytosolic components (FIG. 12). Transmission electron microscopy services were performed by Michigan State University Center for Advanced Microscopy (East Lansing, Mich.).
To test the theory, lysosomal turnover was first evaluated by visualizing lysosomes using transmission electron microscopy (TEM). U2OS cells were initially treated with a CQ concentration above the effective dose (100 μM) for 3 hours as a positive control, and were then subsequently fixed and imaged. […] Once this phenotype was established, cells were treated with a lower concentration (3 μM) of CQ to compare each compound at the same concentration.

A further experiment deals with A375 cells. In kind it is cell-based, human. To be noted: for Relative Growth Inhibition Compound A / IC10 concentration: A375 soft agar; for Relative Growth Inhibition Compound A: single compound at IC10; for IC10 concentration: treated every other day for three weeks, single agent; for expected (additive) reduction of colony formation: combination with PLX-4032, Bliss Independence prediction; for reduction of colony formation: combinatorial treatment with PLX-4032, each at IC10, FIG. 18A. The text has this: After three weeks of treatment, cells were fixed and stained in 1% paraformaldehyde in 1×PBS containing 0.005% crystal violet overnight. Cells were destained with multiple washes of 1×PBS to remove background staining. Plates were scanned and images quantified using Nikon NIS Elements software. To quantify, each image was sharpened and an ROI of equal size drawn around each well. Intensity thresholds were set to include all pixels equal to or greater than the intensity of the mean background fluorescence. Objects within the threshold of each ROI were quantified using an automated object count function and exported for analysis. Object number was quantified to denote total colony formation. […] Additivity was established when the expected viability determined by the Bliss independence model was equal to the actual viability. This model was chosen since the effects of both compounds are mutually non-exclusive and follow first order Michaelis-Menten kinetics.
To determine if the effects of each combination were more than, less than, or equal to additive, predictions for additivity were made using the Bliss Independence (Table 7), as disclosed in Yan H, Zhang B, Li S, Zhao Q. A formal model for analyzing drug combination effects and its application in TNF-alpha-induced NFkappaB pathway. BMC Syst. […] Drug combination studies and their synergy quantification using the Chou-Talalay method.

Where [5] appears, read: A-375, A375 cell viability, CellTiter Glo, 48 hours, read-out: IC50.
Setting [6] is: UACC-257 cell viability, CellTiter Glo, read-out: IC50.
[7] abbreviates: UACC-903 cell viability, CellTiter Glo, read-out: IC50.
The mark [8] stands for this setting: UACC-1308 cell viability, CellTiter Glo, read-out: IC50.
The mark [9] stands for this setting: UACC-1940 cell viability, CellTiter Glo, read-out: IC50.
[10] abbreviates: Compound A combined with AZD-8055, each at IC10.
[11] abbreviates: Compound A combined with PLX-4032, each at IC10.

The term IC50 denotes the point on the concentration scale where inhibition reaches its midpoint. On to `COc1ccc2nc3cc(Cl)ccc3c(NCCCCN3CCN(C)CC3)c2c1` [Example 7, 6-Chloro-2-methoxy-N-(4-(4-methylpiperazin-1-yl)butyl)acridin-9-amine], for which the IC50 in the experiment with A375 melanoma cell line (setting [5]) is 0.4 µM. The IC50 in experiment [1] (setting [6]) was determined as 2 µM. Further, the IC50 in experiment [2] (setting [7]) worked out at 1.5 µM. For the same molecule, the IC50 in experiment [3] (setting [8]) came to 2.1 µM. The IC50 in experiment [4] (setting [9]) was 4 µM. In addition, in the experiment with U2OS cells, the “electron-opaque structures, consistent with lipid droplets (TEM)” value is “appearance of several electron-opaque structures”; the “size and number of electron-lucent and electron-dense vesicles (TEM)” value (shortened to “size and number”) was “increase in both the size and number”. In the experiment with A375 cells, the “Relative Growth Inhibition Compound A” value is 0.37, the IC10 concentration was 0.005 µM, the “expected (additive) reduction of colony formation” value is listed as 49% and the “reduction of colony formation” value was determined as 64%. Also, in the experiment with A375 cells (setting [10]), the “Actual Growth Inhibition” value stood at 0.57 and the “Expected Bliss Additive Inhibition Value” is listed as 0.44. Besides, in the experiment on A375 cells (setting [11]), the “Actual Growth Inhibition” value stood at 0.64 and the “Expected Bliss Additive Inhibition Value” is listed as 0.49.

`CN1CCN(CCNc2c3c(nc4cc(Cl)ccc24)CCCC3)CC1` [Example 27, 6-Chloro-N-(2-(4-methylpiperazin-1-yl)ethyl)-1,2,3,4-tetrahydroacridin-9-amine] showed an IC50 in the experiment on A375 melanoma cell line (A-375, 48 h) of 24.3 µM. Moreover, in experiment [1] (UACC-257), the midpoint of inhibition, the IC50, lay at 25.3 µM. Besides, half-maximal inhibition in experiment [2] (UACC-903) (IC50) was put at 27.2 µM. This molecule registered an IC50 in experiment [3] of 14.9 µM. In experiment [4], the IC50 was 21.6 µM. In addition, in the experiment on U2OS cells, the “electron-opaque structures, consistent with lipid droplets (TEM)” value is reported as “appearance of several electron-opaque structures”; the “size and number” value is “increase in both the size and number”. Besides, in the experiment with A375 cells, the “Relative Growth Inhibition Compound A” value worked out at 0.37, the IC10 concentration worked out at 0.002 µM, the “expected (additive) reduction of colony formation” value is 49% and the “reduction of colony formation” value amounted to 62%. Further, in the experiment with A375 cells (setting [10]), the “Actual Growth Inhibition” value is listed as 0.50 and the “Expected Bliss Additive Inhibition Value” is given as 0.44. For the same molecule, in the experiment with A375 cells (setting [11]), the “Actual Growth Inhibition” value was found to be 0.62 and the “Expected Bliss Additive Inhibition Value” is 0.49.

Regarding `CCN(CC)CCCC(C)Nc1c2ccc(Cl)cc2nc2ccc(OC)cc12` (stereo not shown) [Quinacrine, quinacrine, reference compound], the IC50 stood at 2.3 µM in the experiment with A375 melanoma cell line (setting [5]); 3 µM in experiment [1] (setting [6]); 2.7 µM in experiment [2] (setting [7]); 3.9 µM in experiment [3] (setting [8]); 1.9 µM in experiment [4] (setting [9]). The “size and number” value in the experiment with U2OS cells is “increase in both the size and number”. Besides, the IC10 concentration in the experiment on A375 cells was found to be 0.064 µM. Moreover, the figures for the “Actual Growth Inhibition” value with A375 cells (setting [10]) and with A375 cells (setting [11]) were 0.54 and 0.59, respectively. The “reduction of colony formation” value in the experiment with A375 cells was 59%.
